# Target: BCL-2 (Homo sapiens (Human), UniProt P10415)
# Assay: Protein-protein interaction assay BCL-2/Bad BH3 peptide (BCL-2 assay), TR-FRET
# Type: binding
# Conditions: BCL-2/Bad BH3 peptide TR-FRET; median
# Experimental: Assay 3 Protein-Protein Interaction assay: BCL-2/Bad BH3 Peptide (BCL-2 Assay)
# The dose-dependent inhibition by the compounds described in this invention of the interaction between BCL-2 and the BH3 domain of Bad (both human) was determined using a steady state binding competition assay with time-resolved fluorescence energy transfer (TR-FRET) readout. For that purpose BCL-2 (amino acids 1-211, C-terminal fused to a hexahistidine (6× His) tag (SEQ ID 5) and a synthetic Bad BH3-derived peptide of sequence Biotin-PEG2-PEG2-NLWAAQRYGRELRR-Nle-SDEFVDSFKK-amide (SEQ ID 4) served as protein receptor and tracer ligand respectively. The recombinant BCL-2 protein (expressed in E. coli) was purchased from BPS Bioscience (San Diego, Calif., USA). The Bad BH3-derived peptide can be obtained from e.g. Biosyntan (Berlin, Germany).
# In the assay 11 different concentrations of each compound (0.1 nM, 0.33 nM, 1.1 nM, 3.8 nM, 13 nM, 44 nM, 0.15 μM, 0.51 μM, 1.7 μM, 5.9 μM and 20 μM) were typically measured as duplicates in the same microtiter plate. For that, 100-fold concentrated DMSO solutions were prepared by serial dilutions (1:3.4) of a 2 mM stock solution in a clear, 384-well microtiter plate (Greiner Bio-One, Frickenhausen, Germany). From there, 50 nl were transferred in a dark test plate (Greiner Bio-One, Frickenhausen, Germany). The assay was initiated by addition of 2 μl of a 2,5-fold concentrated His-BCL-2 solution (usually for a 1 nM end concentration in 5 μl reaction volume) in aqueous assay buffer [50 mM Tris/HCl pH 7, 100 mM sodium chloride (NaCl), 50 mM potassium fluoride (KF), 0.005% Tween-20, 2 mM DTT, 0.1% bovine gamma globulin (BGG)] to the compounds in the assay plate. This was followed by a 10-minute incubation step at 22° C. for pre-equilibration of the putative complex between His-BCL-2 and the compounds. After that, 3 μl of a 1.67-fold concentrated solution (in assay buffer) consisting of Bad BH3-derived peptide (1 nM end concentration) and TR-FRET detection reagents [1.67 nM anti-His-Eu cryptate and 1.67 nM streptavidin-XL665 (both from Cisbio Bioassays, Codolet, France)], were added.
# The mixture was incubated in the dark for one hour at 22° C. and then overnight at 4° C. The formation of BCL-2/Bad complexes was determined by measuring the resonance energy transfer of the anti-His-Eu-cryptate antibody to the streptavidin-XL665 present in the reaction. For that purpose, the fluorescence emission at 620 nm and 665 nm after excitation at 330-350 nm was measured in a TR-FRET measuring instrument, for instance a Rubystar or a Pherastar (both from BMG Lab Technologies, Offenburg, Germany) or a Viewlux (Perkin-Elmer). The ratio of the emission at 665 nm and at 622 nm was used as indicator of the amount of BCL-2/Bad complexes present.
# The resulting data (ratio) were normalized, taking 0% inhibition as the mean value of control measurements (usually 32 data points) where all reagents were included. In this case 50 nl DMSO were used instead of compounds. A 100% inhibition corresponded to the mean value of control measurements (usually 32 data points) where all reagents except BCL-2 were included. IC50 values were determined by regression analysis based on a 4 parameter equation (minimum, maximum, IC50, Hill; Y=Max+(Min−Max)/(1+(X/IC50)^Hill) using the Screener Software (Genedata).
# BCL-2, sequence (P10415 1-211): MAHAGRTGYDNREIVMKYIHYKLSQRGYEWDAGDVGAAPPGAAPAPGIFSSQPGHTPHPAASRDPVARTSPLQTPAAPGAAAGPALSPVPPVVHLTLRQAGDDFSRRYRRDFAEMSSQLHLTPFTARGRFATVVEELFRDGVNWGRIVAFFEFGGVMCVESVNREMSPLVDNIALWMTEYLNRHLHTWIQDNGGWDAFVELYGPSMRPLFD
row,IC50 [µM],SMILES
1,> 20,"Cc1c2c(nn1C)COCCCCn1c(C(=O)O)c(CCCOc3ccc(F)c4ccccc34)c3ccc(F)c-2c31 (single isomer, unassigned; enantiomer 1) [Example 16, 4-fluoro-7-{3-[(4-fluoronaphthalen-1-yl)oxy]propyl}-2,3-dimethyl-2,10,11,12,13,15-hexahydro-pyrazolo[4′,3′:9,10][1,6]oxazacycloundecino[8,7,6-hi]indole-8-carboxylic acid (enantiomer 1)]"
2,> 20,"CCc1c2c(nn1C)CN(C)CCCCn1c(C(=O)O)c(CCCOc3cccc4cc(F)ccc34)c3ccc(F)c-2c31 (racemic) [Example 53, (rac)-3-ethyl-4-fluoro-7-{3-[(6-fluoro-1-naphthyhoxy]propyl}-2,14-dimethyl-10,11,12,13,14,15-hexahydro-2H-pyrazolo[3′,4′:8,9][1,6]diazacycloundecino[10,11,1-hi]indole-8-carboxylic acid]"

row,SMILES,IC50 [µM]
1,"Cc1c2c(nn1C)CNCCCCn1c(C(=O)O)c(CCCOc3cccc4ccccc34)c3ccc(F)c-2c31 (single isomer, unassigned; enantiomer 1) [Example 48, 4-fluoro-2,3-dimethyl-7-{3-[(naphthalen-1-yl)oxy]propyl}-10,11,12,13,14,15-hexahydro-2H-pyrazolo[3′,4′:8,9][1,6]diazacycloundecino[10,11,1-hi]indole-8-carboxylic acid (enantiomer 1)]",> 20
